Measured values taken from the supplement of paper PMC4862054.

Assays:
Conditions in all cases: incubation time: 72 h
MDA-MB-436 = test: drug sensitivity score (DSS), CellTox Green (DSS (AUC-based score)); higher = stronger drug effect (viability inhibition or cytotoxicity); extreme values may be limits of the assay
Outline: (§1)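 Compound was dispensed into 384-well plates at 5 concentrations in 10-fold steps spanning a 10,000-fold range chosen for each compound, and 20 µl of breast cancer cell suspension was added before 72 h of incubation. CellTox Green fluorescence was read at 485/520 nm, followed by CellTiter-Glo luminescence after 10 min at room temperature. Values on each plate were normalised to 0.1 % DMSO and a positive kill control. The drug sensitivity score came from the area under the fitted dose-response curve.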

MFM-223 [1] = test: as above
Outline: as §1

MDA-MB-453 [2] = test: as above
Outline: as §1

MCF-10A = test: as above
Outline: as §1

CAL-51 [3] = test: as above
Outline: as §1

HCC1599 [4] = test: as above
Outline: as §1

BT-549 [5] = test: as above
Outline: as §1

DU-4475 = test: as above
Outline: as §1

MDA-MB-468 [6] = test: as above
Outline: as §1

HDQ-P1 [7] = test: as above
Outline: as §1

CAL-120 [8] = test: as above
Outline: as §1

MFM-223 [9] = test: drug sensitivity score (DSS), CellTiter-Blue viability (DSS (AUC-based score)); higher = stronger viability inhibition; extreme values may be limits of the assay
Protocol: (§2)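 DSRT with the CellTiter-Blue (resazurin reduction) viability readout, fluorescence 560/590 nm, 72 h incubation. Plates were normalised to DMSO and benzethonium chloride controls. DSS is computed from the area under the fitted dose-response curve (5 or 9 concentrations).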

CAL-85-1 = test: as above
Protocol: as §2

MDA-MB-453 [10] = test: as above
Protocol: as §2

HCC1937 = test: as above
Protocol: as §2

CAL-51 [11] = test: as above
Protocol: as §2

HCC1599 [12] = test: as above
Protocol: as §2

Hs578T = test: as above
Protocol: as §2

BT-549 [13] = test: as above
Protocol: as §2

MDA-MB-468 [14] = test: as above
Protocol: as §2

HCC1143 = test: as above
Protocol: as §2

MDA-MB-231 = test: as above
Protocol: as §2

CAL-148 = test: as above
Protocol: as §2

SK-BR-3 = test: as above
Protocol: as §2

HDQ-P1 [15] = test: as above
Protocol: as §2

CAL-120 [16] = test: as above
Protocol: as §2

Row | Structure (SMILES) | drug sensitivity score (MDA-MB-436) | drug sensitivity score (MFM-223 [1]) | drug sensitivity score (MDA-MB-453 [2]) | drug sensitivity score (MCF-10A) | drug sensitivity score (CAL-51 [3]) | drug sensitivity score (HCC1599 [4]) | drug sensitivity score (BT-549 [5]) | drug sensitivity score (DU-4475) | drug sensitivity score (MDA-MB-468 [6]) | drug sensitivity score (HDQ-P1 [7]) | drug sensitivity score (CAL-120 [8]) | drug sensitivity score (MFM-223 [9]) | drug sensitivity score (CAL-85-1) | drug sensitivity score (MDA-MB-453 [10]) | drug sensitivity score (HCC1937) | drug sensitivity score (CAL-51 [11]) | drug sensitivity score (HCC1599 [12]) | drug sensitivity score (Hs578T) | drug sensitivity score (BT-549 [13]) | drug sensitivity score (MDA-MB-468 [14]) | drug sensitivity score (HCC1143) | drug sensitivity score (MDA-MB-231) | drug sensitivity score (CAL-148) | drug sensitivity score (SK-BR-3) | drug sensitivity score (HDQ-P1 [15]) | drug sensitivity score (CAL-120 [16])
1 | CCCCCCCCCCCCCCCCCCOP(=O)([O-])OC1CC[N+](C)(C)CC1 [Perifosine] | 0 | 0 | 0 | 0 | 0 | 0 | 0 | 0 | 0 | 0 | 0 | – | – | – | – | – | – | – | – | – | – | – | – | – | – | –
2 | O=P1(NCCCl)OCCCN1CCCl (stereo not given) [Ifosfamide] | – | 0 | 0 | 0 | 0 | 0 | 0.736 | 0 | 0 | 0 | 0 | 0 | 0 | 0 | 0 | 0 | 0 | 0 | 0 | 0 | 0 | 0 | 0 | 0 | 0 | 0
3 | NC(=O)Nc1cc(-c2cccc(F)c2)sc1C(=O)N[C@H]1CCCNC1 [AZD7762] | 0 | 0 | 0 | 0 | 3.37 | 0 | 0 | 0 | 6.89 | 0 | 0 | – | – | – | – | – | – | – | – | – | – | – | – | – | – | –
4 | NCC(=O)CCC(=O)O [Aminolevulinic acid] | – | – | – | – | – | – | – | – | – | – | – | 0 | 0 | 0 | 0 | 0 | 0 | 0 | 0 | 0 | 0 | 0 | 0 | 0 | 0 | 0
5 | NC(=O)Nc1cc(-c2cccc(F)c2)sc1C(=O)N[C@H]1CCCNC1 [AZD 7762] | – | – | – | – | – | – | – | – | – | – | – | 0 | 6.01 | 5.94 | 2.04 | 2.84 | 5.69 | 5.73 | 1.54 | 2.52 | 1.6 | 1.83 | 2.2 | 4.87 | 3.34 | 2.17
6 | N#CCNC(=O)c1ccc(-c2ccnc(Nc3ccc(N4CCOCC4)cc3)n2)cc1 [Momelotinib] | 0 | 0 | 0 | 0 | 0 | 0 | 2.78 | 0 | 2.22 | 0 | 0 | – | – | – | – | – | – | – | – | – | – | – | – | – | – | –
7 | CS(=O)(=O)c1ccc(C2=C(c3ccccc3)C(=O)OC2)cc1 [Rofecoxib] | 0 | 0 | 0 | 0 | 0 | 0 | 0 | 0 | 3.77 | 0 | 0 | – | – | – | – | – | – | – | – | – | – | – | – | – | – | –
8 | O=C1CCC(N2C(=O)c3ccccc3C2=O)C(=O)N1 (stereo not given) [Thalidomide] | 4.46 | 0 | 0 | 0 | 0 | 0 | 0 | 0 | 0 | – | 0 | 0 | 0 | 0 | 0 | 0 | 0 | 0 | 0 | 0 | 0 | 0 | 0 | 0 | 0 | 0
9 | O=C(CCCCCCC(=O)Nc1ccc([C@H]2O[C@@H](CSc3nc(-c4ccccc4)c(-c4ccccc4)o3)C[C@@H](c3ccc(CO)cc3)O2)cc1)NO [Tubacin] | 0 | 0 | 1.38 | 0 | 3.54 | 0 | 0 | 0 | 0 | 0 | 0 | – | – | – | – | – | – | – | – | – | – | – | – | – | – | –
10 | CC(=O)Nc1ccc(C(=O)Nc2ccccc2N)cc1 [CI-994] | – | – | – | – | – | – | – | – | – | – | – | 0 | 0 | 0 | 0 | 0 | 0 | 0 | 0 | 0 | 0 | 0 | 0 | 0 | 0 | 0
